From patent US7655816B2, “Method for stabilizing menthyl lactate” (Millennium Specialty Chemicals, priority 2007, dated 2010)

Type: physicochemical
Details: for GC purity after storage / acid number after storage / appearance after storage / odor after storage: after storage for 39 months in a closed glass jar
Excerpt: Precipitation according to the method of the invention provides menthyl lactate having improved stability compared with that of an unprecipitated sample. By “improved stability,” we mean that one or more important physical properties of the menthyl lactate becomes more constant as a function of time as a consequence of precipitation when compared with menthyl lactate that has not been precipitated according to the method. Important physical properties include, without limitation, appearance, dimensional stability, color, texture, organoleptic properties (odor, flavor), melting point, acid number, GC purity, optical rotation, pH, solubility, and the like. Preferably, the ML retains its desirable physical property or properties even after prolonged storage. “Prolonged” depends on the particular application, but it is preferably at least one week, more preferably at least one month, and most preferably at least one year.
After storage for 39 months in a closed glass jar, the product is evaluated for quality.
A sample of solid menthyl lactate from the same batch that was used in Example 1 is stored under similar conditions for the same 39 months. […] Mp: 39.3° C.; GC purity: <96%; acid number: 32 mg KOH/g.

Row | SMILES | melting point after storage [°C] | GC purity after storage [%] | acid number after storage [mg KOH/g] | appearance after storage | odor after storage
1 | CC1CCC(C(C)C)C(OC(=O)C(C)O)C1 (stereo not drawn) [Comparative Example 3, menthyl lactate] | 36.7 | 92 | 20 | shrinks | strong, pungent acidic odor
2 | CC1CCC(C(C)C)C(OC(=O)C(C)O)C1 (stereo not drawn) [Comparative Example 4, menthyl lactate] | 43.6 | – | 0.27 | – | some deterioration of odor quality
3 | CC1CCC(C(C)C)C(OC(=O)C(C)O)C1 (stereo not drawn) [Example 1, menthyl lactate] | 43.9 | ≥ 99.8 | 0.15 | fine, white crystalline powder | faint, minty
4 | CC1CCC(C(C)C)C(OC(=O)C(C)O)C1 (stereo not drawn) [compound 2, menthyl lactate] | 39.3 | < 96 | 32 | – | strong, pungent acidic odor
5 | CC1CCC(C(C)C)C(OC(=O)C(C)O)C1 (stereo not drawn) [compound 5, menthyl lactate] | 43.7 | 97 | 0.32 | – | strong, pungent acidic odor
